Data set [1] is classed as in vivo, human (healthy subjects). An excerpt: (§1) The applicant has funded double-blind, randomised, Phase 1, single ascending dose studies to evaluate the safety, tolerability and pharmacokinetic profile of intranasal 5-MeO-DMT hydrochloride and intranasal 5-MeO-DMT benzoate in healthy subjects. […] It is desirable that a compound for use in treatment has dose-proportional pharmacokinetics, for example, to facilitate dose and dose regimen adjustment in patients. In an embodiment, there is provided a salt of 5-MeO-DMT with dose-proportional pharmacokinetics, optionally for use in the methods disclosed herein. In an embodiment, the salt of 5-MeO-DMT with dose-proportional pharmacokinetics is the benzoate or HBr salt, optionally the benzoate salt. A double-blind, randomised, Phase 1, single ascending dose study to evaluate the safety, tolerability and pharmacokinetic profile of a liquid intranasal 5-MeO-DMT HCl (5-MeO-DMT HCl, HPMC, water for injection (WFI) and a sodium hydroxide solution to adjust pH) pharmaceutical composition/formulation in healthy subjects was performed.
A double-blind, randomised, Phase 1, single ascending dose study to evaluate the safety, tolerability and pharmacokinetic profile of intranasal 5-MeO-DMT benzoate in healthy subjects was performed.

Data set [2] in a line: thermal decomposition properties of salt forms (TGA). The format is physicochemical. From the text: The thermal decomposition properties of a range of salt forms of 5-MeO-DMT has been investigated and is summarised in the report below: […]
The nature of data set [3]: physical stability / hygroscopicity of salts and formulations.
A short description of data set [4]: dissolution rate (UV-fibre optic dissolution apparatus, simulated nasal fluid). The class given is physicochemical. The procedure:
The dissolution rate of SDD was determined using a method comprising the use of a UV-fibre optic-based dissolution apparatus (one such suitable device is the Rainbow® Dynamic Dissolution Monitor by Pion Inc) and simulated nasal fluid. The simulated nasal fluid comprises 7.45 g/L NaCl, 1.29 g/L KCl, 0.32 g/L CaCl2)×2H2O and deionised water.

A short description of data set [5]: solid state by XRPD and DSC. The class given is physicochemical. The note with it: XRPD and/or DSC, after spray drying or lyophilisation. The procedure:
Unless otherwise stated herein all X-ray powder diffractograms (XRPD) were generated using an X-ray wavelength of 1.5406 Å; all modulated differential scanning calorimetry (DSC) thermograms were generated using a 2 °C/min heating rate.

Data set [6] can be described thus: Phase 1 single ascending dose study of intranasal 5-MeO-DMT HCl in healthy subjects. The format is in vivo. As to conditions: human plasma.
From the text: as §1

Entries after “also recorded” stand apart in the source; their conditions may differ.

In the case of `CN(C)CCc1c[nH]c2ccc(O)cc12` [Bufotenin], the “detection of O-demethylated metabolite (Bufotenin)” value in data set [1] (6 mg dose level of intranasal 5-MeO-DMT benzoate, after the 16 minutes time point) is “only detected at very low levels”.
Consider `O=C(O)CCC(=O)C(=O)O` [Ketoglutarate], for which, in data set [2], the “temperature at which gross decomposition starts” value was “Melt 85 °C, gross decomp starts 170 °C”.
For Phosphate, the decomposition temperature entry in data set [2] is “Decomp around 200 °C”.
Take `C1=Cc2cccc(OC[C@H]3CNCCO3)c2C1.O=S(=O)(O)c1ccccc1` [Benzenesulfonate]: in data set [2], the “temperature at which gross decomposition starts” value is “Melt 76 °C, gross decomp starts 280 °C”.
With `O=C(O)C(O)C(O)C(=O)O` (centres unmarked) [Tartrate], in data set [2], the decomposition temperature entry is “Melt ~140 °C, decomp ~200 °C”.
On to `O=C(O)CC(O)C(=O)O` (centres unmarked) [Malate], for which the “temperature at which gross decomposition starts” value in data set [2] was “Melt 100 °C, gross decomp starts 250 °C”.
Consider `Br.COc1ccc2[nH]cc(CCN(C)C)c2c1` [5-MeO-DMT hydrobromide], for which the “temperature at which gross decomposition starts” value in data set [2] was “Melt 149 °C, gross decomp starts 220 °C”. The “physical / state stability, in words” value in data set [3] was “stable amorphous dispersion without the need for any additional drying step post spray drying; also recorded: state-stable when stored at above the temperature range 2-8 °C”.
On to Fumarate, for which, in data set [2], the decomposition temperature entry is “Decomp around 200 °C”.
Take Tosylate: the “temperature at which gross decomposition starts” value in data set [2] was “Melt 110 °C, gross decomp starts 280 °C”.
On to Oxalate, for which, in data set [2], the mass loss entry was “Melts 176 °C, full mass loss”.
In the case of `COc1ccc2[nH]cc(CCN(C)C)c2c1.O=C(O)c1ccccc1` [5-MeO-DMT benzoate], in data set [1] (intranasal, 12 mg dosage, human plasma), the “mean Cmax” value was 29 ng/mL. For the same compound, the “mean Tmax” value in data set [1] (intranasal, human plasma) amounted to 9.5 min. For the same compound, the “dissolution rate / profile, in words” value in data set [4] was “almost instantaneous dissolution rate; also recorded: a reduced dissolution rate as compared to the amorphous form of 5-MeO-DMT salts”. The “solid state of the dispersion produced” value in data set [5] is “amorphous dispersion with no sign of the crystalline benzoate salt”. Further, in data set [2], the mass loss result is given as “full mass loss” and the “temperature at which decomposition starts” value was around 220 °C. Besides, in data set [3], the “physical / state stability, in words” value was “storage at 2-8° C., and protection from moisture, prevents recrystallisation and aggregation; also recorded: stable crystalline spray dried dispersion particle with no respirable API fines or significant aggregation”; the “stability profile, in words” value is given as “good stability profile”.
With Glycolate, in data set [2], the “temperature at which gross decomposition starts” value is “Melt 95 °C, gross decomp starts 170 °C”.
Consider `COc1ccc2[nH]cc(CCN(C)C)c2c1.Cl` [5-MeO-DMT HCl], for which the mean concentration profiles result in data set [6] (5 mg, 8 mg, 10 mg, 11 mg and 14 mg) is on record as “substantially similar”. Also, the dose-proportional pharmacokinetics result in data set [6] (liquid intranasal HCl formulation, 5, 8, 10, 11 and 14 mg) was “does not display dose-proportional pharmacokinetics”. Moreover, in data set [3], the “stability profile, in words” value is “issues relating to stability, discoloration and a reduction in desirable pharmacokinetic properties”.

These data come from patent US20260325489A1, “PHARMACEUTICAL COMPOSITIONS COMPRISING 5-METHOXY-N,N-DIMETHYLTRYPTAMINE (5-MEO-DMT)” (Beckley Psytech Limited, priority 2023, published 2026).
